Tests used:
HIF and VHL target genes = experiment: Gene expression profiling and gene set enrichment analysis (GSEA) of compound treated 786-O cells; assay type: cell-based, human; settings: for regulation of HIF target genes: 786-O cells at experimentally determined IC50 concentrations; for NES, gene set PRC3, VHL null (markers of PRC3 cells compared to WT8 cells) / NES, gene set Schofield, HIF (validated HIF-regulated genes) / NES, gene set Staller, VHL WT (markers of VHL WT cells compared to VHL null cells) / NES, gene set Staller, VHL null (markers of VHL null cells compared to VHL WT cells) / NES, gene set WT8, VHL WT (markers of WT8 cells compared to PRC3 cells): 786-O cells, GSEA normalized enrichment score
Method: RNA from compound treated 786-O cells was isolated as described for qRT-PCR experiments. Labeled cRNA was prepared and hybridized to Affymetrix U133 Plus 2.0 microarrays according to the manufacturer's protocols. Scans were processed using Affymetrix MASS software and median scaled. Gene expression values less than a minimum threshold of 20 or a maximum threshold of 16000 were set to 20 and 16000, respectively. Genes with minimal variation across the dataset were discarded (maximum/minimum<3 or maximum−minimum<100). Class neighbors were identified with GenePattern software using the signal to noise metric (Golub et al., 1999). Hierarchical clustering was performed using dCHIP software. Gene set enrichment analysis was performed as described (Mootha et al., 2003) and significance was determined by permutation of the gene labels. Gene expression signatures were analyzed using the Connectivity Map webtool (build 01). Full details of the Connectivity Map dataset and analytics are provided elsewhere (Lamb et al., 2006). For PGJ2 expression analysis, raw gene-expression data have GEO series accession number GSE13818 and compound signatures from which non-HG-U133A probe sets were removed (see Table 6) were used to query the Connectivity Map (build 02).
Total RNA was extracted from stable 786-O derived VHL-reconstituted (WT8), HIF-2a knock down (pTR) and their respective vector only control (PRC3 and pTV) cells and labeled cRNA was hybridized to oligonucleotide arrays. […] Compound-treated parental 786-O cells were subjected to the same analysis. […] The gene set enrichment analysis (GSEA) algorithm was used to investigate whether the compounds affected the expression of genes identified as VHL and HIF targets in other cell types (Mootha et al., 2003).

HUVEC = HUVEC proliferation assay; assay type: cell-based, human; settings: conditioned supernatant from compound-treated 786-O cells
Method: HUVEC cells were plated in a 96 well plate in HUVEC minimal medium (Chembrex, EBM-2). 24 hours later, medium was replaced with a 1:4 mix of tissue culture medium that had been conditioned from compound or DMSO-only treated 786-O cells and HUVEC minimal medium. HUVEC proliferation was quantified by a colorimetric proliferation assay (WST-1, Roche, Germany).
Conditioned tissue culture medium from compound-treated 786-O cells was tested for its ability to induce human umbilical vein endothelial cell (HUVEC) proliferation.

HIF-2a mRNA translation = experiment: 35S-methionine pulse-label immunoprecipitation of HIF-2a (translation); assay type: cell-based, human; settings: 786-O cells
Method: Cells were treated with medium only, DMSO, or compound as described for western blots. Following the second day of treatment, cells were washed twice in PBS and then placed into medium only, DMSO, or labeling medium (methionine minus DMEM supplemented with 1× glutamine and 5% dialyzed FBS) and pulse-labeled for 30 minutes at 37° C. with 0.5 mCi ^35S-Methionine (New England Nuclear) per p100 plate. Cells were washed twice in PBS and lysed with RIPA buffer supplemented with protease inhibitors. […] In the case of the pulse-chase experiment, two identically treated plates were placed into chasing medium (DMEM supplemented with 10% Fetal Clone I, 1× Glutamine and 3 mg/mL methionine), placed back into the 37° C. incubator and harvested after 1.5 and 3 hours. Immunoprecipitated samples were subjected to SDS-PAGE, enhanced in sodium salicylate, dried and exposed for 2-3 days before the film was quantified by densitometry.
The effect of HIF inhibitors on protein translation was determined by ^35S-methionine pulse labeling DMSO or compound treated cells. […] Pulse chase experiments confirm that this decrease is not attributable to any effect on the protein half-life (see FIG. 11).
To determine if PGJ2 decreases translation of the HIF2a message, the inventors evaluated the synthesis rate and stability of the newly synthesized HIF2a by an ^35S-methionine pulse chase experiment on PGJ2 or vehicle only DMSO treated 786-O cells. […] Loading control is 1/1000th of the cell lysate used in the respective immunoprecipitation directly loaded into an SDS-PAGE gel.

[1] = tested on: HIF-2a 5′-UTR Iron-Responsive Element (IRE); experiment: Luciferase reporters with HIF-2a 5′-UTR / IRE in 786-O cells; assay type: cell-based, human; settings: for dependence of effect on the IRE (wild-type or mutant 5′-UTR IRE reporter): 786-O luciferase reporter lines; for dependence of effect on HIF-2a 5′-UTR: HIF-2a promoter luciferase with or without 5′-UTR
[2] = tested on: iron (Fe-(EDHB)3 complex); experiment: In vitro iron competition assay; settings: 0-200 micromolars, absorbance at 500 nm
Method: This assay was performed similarly to that described previously (Wang et al., 2002). Briefly, displacement of iron from ethyl-3,4-dihydroxybenzoate (EDHB) complex was measured as a decrease in absorbance at 500 nm. Ferric iron, prepared as a 5 mM stock solution of FeC13 in 100 mM sodium citrate, was diluted to 25 μM in the presence of 750 μM EDHB. 1 ml aliquots of this solution were then mixed with 0, 25, 50, 100 or 200 micromolars of compounds 40, 41, 76, and 77 as well as EDTA and DFO for controls. […] The self absorbance of compound 41 in a matched solution lacking Fe-(EDHB)3 was subtracted from the A500 value obtained in the presence of the Fe-(EDHB)3 complex.
The inventors next directly tested whether the compounds bind iron by performing a competition assay in which the displacement of iron from ethyl-3,4-dihydroxybenzoate (EDHB), a weakly chelating ester, was measured as a decrease in absorbance at 500 nm. […] In addition, the inventors utilized the Connectivity Map to look for similarities between the induced gene expression signatures of low and high dose DFO and compound treated cells (Lamb et al., 2006). Using this bioinformatic approach, the inventors discovered no significant similarity between the gene expression profile of the compounds and low (chelating) DFO dose, while there was a negative correlation between compound effect and high (HIF stabilizing) DFO dose (see FIG. 13).

HIF-1a = experiment: Western blot for HIF-1a in hypoxic CWR22R and Hep3B cells; assay type: cell-based, human; settings: hypoxia
Method: The consensus sequence of the loop and the mandatory 5′ cytosine bulge are highlighted with light blue circles. […] Duplicate plates of 786-O derived lines expressing the putative wild-type or mutant HIF-1a IRE were cultured in the presence of compound as described for FIG. 1, with the exception that one set was placed at 1% oxygen for 24 hours following the first day's medium-change. Cells were treated with M, medium only; D, DMSO; or compounds, as indicated at the following concentrations: 40, 40 μM; 41, 30 μM; 76, 10 μM; 77, 5 μM. […] CWR22R or Hep3B cells were treated with compound and subjected to hypoxia as described above. B-Actin is shown for loading control. Cells were treated with M, medium only; D, DMSO; or compounds, as indicated at the following concentrations: 40, 40 μM; 41, 30 μM; 76, 20 μM; 77, 7.5 μM.
Hypoxia stabilized HIF-2a in VHL-reconstituted WT8 cells, but treatment with compounds diminished hypoxia-induced HIF-2a expression (FIG. 3C).

[3] = tested on: Transferrin Receptor 1 (TfR1) mRNA; experiment: qRT-PCR for Transferrin Receptor 1 mRNA; settings: for Transferrin Receptor 1 mRNA expression: compound treated 786-O cells

Row | TfR1 mRNA stability ([3]; 786-O cells following addition of Actinomycin D) | SMILES | regulation of HIF target genes (HIF and VHL target genes) | NES, gene set PRC3, VHL null (markers of PRC3 cells compared to WT8 cells) (HIF and VHL target genes) | NES, gene set Schofield, HIF (validated HIF-regulated genes) (HIF and VHL target genes) | NES, gene set Staller, VHL WT (markers of VHL WT cells compared to VHL null cells) (HIF and VHL target genes) | NES, gene set Staller, VHL null (markers of VHL null cells compared to VHL WT cells) (HIF and VHL target genes) | NES, gene set WT8, VHL WT (markers of WT8 cells compared to PRC3 cells) (HIF and VHL target genes) | angiogenic activity of renal carcinoma cell supernatant (HUVEC proliferation) (HUVEC) | HIF-2a mRNA translation (newly synthesized HIF-2a protein) (HIF-2a mRNA translation) | dependence of effect on the IRE (wild-type or mutant 5′-UTR IRE reporter) [1] | dependence of effect on HIF-2a 5′-UTR [1] | displacement of iron from EDHB complex (iron chelation) [2] | hypoxic induction of HIF-1a (HIF-1a) | Transferrin Receptor 1 mRNA expression [3] | effect on synthetic 5′-UTR stem loop reporter (CMV-SL over CMV) ([1]; 786-O cells, 10 μM)
1 |  | C/C(=C\c1ccccc1)C(=O)CCN(C)C.Cl [Compound 40, 5-(dimethylamino)-2-methyl-1-phenyl-1-penten-3-one hydrochloride] | coordinately downregulate HIF target genes | NES: −3.50 | NES: −1.65 | NES: −1.75 | NES: −2.48 | NES: −1.86 | decrease the angiogenic activity of renal carcinoma cell supernatant | decrease HIF-2a mRNA translation | work via the Iron-Responsive Element (IRE) | dependent upon presence of 5′-UTR | are not iron chelators | indirectly suppress hypoxic induction of HIF-1a in multiple cell types | increase expression of Transferrin Receptor 1 mRNA | 
2 |  | COc1ccc(O)c(/C=C/C(=O)c2c(O)cc(C)oc2=O)c1 [Compound 41, 4-hydroxy-3-[3-(2-hydroxy-5-meoxyphenyl)acryloyl]-6-methyl-2H-pyran-2-one] | coordinately downregulate HIF target genes | NES*: −2.98 | NES: −1.62 | NES: 1.62 | NES: −2.42 | NES: 1.58 | decrease the angiogenic activity of renal carcinoma cell supernatant | decrease HIF-2a mRNA translation | work via the Iron-Responsive Element (IRE) | dependent upon presence of 5′-UTR | are not iron chelators | indirectly suppress hypoxic induction of HIF-1a in multiple cell types | increase expression of Transferrin Receptor 1 mRNA | 
3 | decreases TfR1 mRNA stability | COC(=O)c1sccc1N/N=C(/C#N)S(C)(=O)=O [Compound 76, methyl 3-{2-[cyano(methylsulfonyl)methylene] hydrazino}thiophene-2-carboxylate] | coordinately downregulate HIF target genes | NES: −3.15 | NES: −1.78 | NES: 1.53 | NES: −2.45 | NES: 1.88 | decrease the angiogenic activity of renal carcinoma cell supernatant | decrease HIF-2a mRNA translation | work via the Iron-Responsive Element (IRE) | dependent upon presence of 5′-UTR | are not iron chelators | indirectly suppress hypoxic induction of HIF-1a in multiple cell types | increase expression of Transferrin Receptor 1 mRNA | 
4 |  | CC1(C)CC(=O)C=C(Sc2ccc(C#N)cc2[N+](=O)[O-])S1 [Compound 77, 4-[(2,2-dimethyl-4-oxo-3,4-dihydro-2H-thiin-6-yl)thio]-3-nitrobenzonitrile] | coordinately downregulate HIF target genes | NES: −3.15 | NES: −1.78 | NES: 1.53 | NES: −2.45 | NES: 1.88 | decrease the angiogenic activity of renal carcinoma cell supernatant | decrease HIF-2a mRNA translation | work via the Iron-Responsive Element (IRE) | dependent upon presence of 5′-UTR | are not iron chelators | indirectly suppress hypoxic induction of HIF-1a in multiple cell types | increase expression of Transferrin Receptor 1 mRNA | 
5 |  | CCCCC/C=C/C=C1/C(=O)C=C[C@@H]1C/C=C\CCCC(=O)O [PGJ2, 15-deoxy-Δ^12,14-prostaglandin J2] |  |  |  |  |  |  |  | significantly decrease the amount of protein translated from the mRNA without decreasing the half-life of the protein | completely abolished PGJ2 sensitivity | decreased the luciferase activity derived from the UTR-containing plasmid but not the plasmid driven by the HIF promoter alone | not an iron chelator |  |  | no effect on the synthetic 5′-UTR element
